Results as given in US4921865A, “Aminoacylates of glycerol acetal” (Societe de Conseils de Recherches et d'Applications …, priority 1987, dated 1990).

Assays:
[1] = system: polymorphonuclear leukocytes (PMNs); assay: antagonism of polymorphonuclear leukocyte aggregation induced by PAF; type: cell-based, rat (Wistar); conditions: PAF 10^-8, rat PMNs
Method: Polymorphonuclear leukocytes (PMNs) were obtained as described by A. W. Ford-Hutchinson et al. (Br - J. Pharmacol. 76, 367-371, 1982). Cell suspensions ([…]) were prepared from peritoneal exudates obtained after a 5 ml IP injection of sodium caseinate 12% (w/v) to male Wistar rats, 300 g body weight.
After centrifugation, cells were washed with Hanks and resuspended in MEM/Hepes 30 mM medium (PM=7.4) at a concentration of 10^7 cells/ml. Cytochalasin B (5 μg/ml) was added 10 minutes before trigering aggregation to amplify the PMNs aggregation. The light transmittance through the cell suspension (400 μl) was measured under a 900 R/mn magnetic stirring, with a dual beam aggregometer (Chronolog Corp. Coultronics.)
The control cuvet is the cell suspension diluted to 20% of the cell count with MEM and the difference represents 100% transmittance. Change in transmittance, which occurs when PAF is added, was continuously recorded.
Drugs solubilized in MEM/Hepes were added (4 μl) to PMNs suspension 2 minutes before PAF addition.

[2] = system: PAF-induced [Ca^2+ ]i mobilization, washed rabbits platelets; assay: inhibition of intracytosolic free calcium mobilization induced by PAF in washed rabbit platelets; type: cell-based; conditions: PAF 2×10^-9 M; resting about 150 nM
Method: Blood was taken from the auricular artery of the rabbit on citric acid/sodium citrate/dextrose and anticoagulan and the washed platelets were prepared according to Ardlie et al., Brit. J. Pharmacology, 19, 7-17, 1970. They were incubated with acetylsalicylic salt (100 μM, 30 minutes) to avoid thromboxane induced aggregation. They were then loaded with the fluorescent calcium indicator dye quin 2 by incubation with quin 2 aceto-methylester (15 μM in DMSO, 20 minutes at room temperature) which penetrates the cell membrane and after hydrolysed is trapped in the platelet. Drugs were preincubated with platelets for 15 minutes simultaneously to CP/CPK mixture which destroys secreted ADP.
Fluorescent measurement was then performed (excitation λ=339 nm, emission λ=494 nm) after PAF addition to platelet suspension. The fluorescence intensity is proportional to the cytosolic free calcium level [Ca^2+ ]i which can be quantified as described by Tsien et al., J. Cell Biol., 94, 325-334, 1982.

[3] = system: platelets (PAF induced platelet aggregation); assay: inhibition of PAF-induced platelet aggregation in platelet rich plasma; type: cell-based, New Zealand rabbits; conditions: Oryctolagus cuniculus; rabbit platelet rich plasma, 2.5 nM PAF
Method: 1--INHIBITION OF THE PLATELETS AGGREGATION ON NEW ZEALAND RABBITS
The experimentation was conducted on platelets with plasma of New Zealand rabbits.
Blood samples were taken from auricular artery and placed in a citrate buffer (3.8 %; pH 7.4); blood was further centrifugated for 15 mn at 1200 RPM.
The tested sample was prepared in DMSO, then poured on platelets rich plasma for 1 mn, then a dose of 2.5 nM of PAF was added.
The determination is made on a Cronolog Coultronics apparatus which determines the transmission percentage corresponding to the maximum height of the peak before the desaggregation.
The percentage of variation of the inhibition with respect to the transmission percentage is calculated (control: pure DMSO).
This method was described in details in LABORATORY INVESTIGATIONS, Vol. 41, No. 3, p. 275, 1979, JEAN-PIERRE CAZENAVE, Dr. MED. , JACQUES BENVENISTE, Dr. MED., AND J. FRASER MUSTARD, M.D., "Aggregation of Rabbits Platelets by Platelet-Activating Factor Is Independent of the Release Reaction and the Arachidonate Pathway and Inhibited by Membrane-Active Drugs".
Five tests made on 5 different rabbits allowed us to calculate the IC50 of the various compounds using the linear regression test.

[4] = biological target: T1, [^3 H]-PAF binding, platelet membrane (Oryctolagus cuniculus, UniProt G1TEI7); assay: inhibition of specific [3H]-PAF binding to rabbit platelet membranes; conditions: 1 nM [3H]-PAF, 0°C 1 h 30
T1 construct: Platelet membrane homogenate was stored at -80° C; from tissue; host or cells: rabbit platelets (membrane homogenate from lysed washed platelets)
Method: Synthetic tritiated [^3 H]-PAF used was in ethanol solution with a specific activity of 59.5 ci/mmols. Unlabelled PAF and lyso-PAF were solubilized in ethanol solution and stored at -80° C. The compounds were solubilized in DMSO.
Rabbit whole blood (6 volumes) was drawn from the central ear artery into 1 volume of ACD solution (citric acide 1.4 g, sodium citrate 2 5 g, Dextrose 2 g per 100 ml of H2 O) and centrifuged at 150 g for 15 minutes. The platelet-rich plasma (PRP) was carefully removed and centrifuged for 15 minutes at 1000 g. The platelet pellet was then washed 3 times: twice in Tris-HCl buffer 10 mM, pH 7.4 containing NaCl 150 mM, MgCl2 5 mM, EDTA 2 mM and the last time in the same but sodium-free buffer.
The platelet pellet was resuspended in this latter buffer, quickly frozen in liquid nitrogen and slowly thawed at room temperature for at least 3 times as described by T. Y. Shen et al. The lysed platelets were centrifuged at 100,000 g for 30 minutes in a BECKMAN model L8.55 ultra centrifuge (rotor 50.2 Ti). Platelet membrane homogenate was stored at -80° C. and used within two weeks without noticeable changes in PAF-acether binding characteristics.
Protein contain was determined by the Lowry method using bovine serum albumine as standard.
60 to 100 μg of membrane proteins were added to a final volume of 1 ml in plastic tubes containing 1 nM [^3 H]-PAF in Tris-HCl 10 mM pH 7 buffer containing 0.025 % bovine serum albumin and incubated with or without unlabelled PAF or PAF-antagonists. The incubation was carried out for 1 h 30 at 0° C. The bound [^3 H]-PAF was separated from the free [^3 H]-PAF by immediate filtration through whatman GF/C glass fiber filters under vacuum (Brandel system). The reaction and the filters were washed 3 times with 5 ml of ice-cold buffer. The filters were then placed into polyethylene phials filled up with 10 ml of liquid scintillation fluid and the radioactivity was measured by an LKB β counter with 45% efficiency.
The non specific binding was determined in the presence of 10^-6 M of unlabelled PAF. The specific binding was calculated by substracting non specific binding from the total binding. The inhibition by compounds on the specific [^3 H]-PAF binding was determined as the percent inhibition by the equation: [formula]

T1 sequence (G1TEI7 1-342): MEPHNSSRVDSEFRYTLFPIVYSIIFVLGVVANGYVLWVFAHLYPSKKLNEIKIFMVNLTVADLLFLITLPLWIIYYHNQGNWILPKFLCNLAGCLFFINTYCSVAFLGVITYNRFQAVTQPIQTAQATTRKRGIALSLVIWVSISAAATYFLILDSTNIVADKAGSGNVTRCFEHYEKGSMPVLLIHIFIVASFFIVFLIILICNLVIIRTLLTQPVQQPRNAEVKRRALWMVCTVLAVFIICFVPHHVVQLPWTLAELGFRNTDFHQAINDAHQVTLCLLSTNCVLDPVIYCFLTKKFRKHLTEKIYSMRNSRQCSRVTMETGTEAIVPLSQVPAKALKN

| Compound | IC50 [3] [µM] | further results |
| --- | --- | --- |
| CCCCCCCCCCCCCCCCOCC(COP(=O)([O-])OCC[N+](C)(C)C)OC(C)=O (stereo not drawn) [PAF, reference compound] |  | aggregation of PMNs induced [1]: 55 to 70%; [Ca^2+ ]i level after stimulation [2]: 400 to 600 nM |
| CCCCCCCCCCCCCCCCCC1(CCC)OCC(COC(=O)CCCCC[n+]2ccccc2)O1 (stereo not drawn) [Example 13, 2-heptadecyl 2-(n-propyl) 4-[6'-(N-pyridinium)hexanoylmethyl] 1,3-dioxolanbromide] | 1.73 |  |
| CCCCCCCCCCCCCCCCCC1OCC(COC(=O)CCC[n+]2cccc3ccccc32)O1 (stereo not drawn) [Example 5, 2-heptadecyl 4[4'-(N-quinolinium)butyryloxymethyl] 1,3 dioxalan chloride] | 3.1 |  |
| CCCCCCCCCCCCCCCCCC1(CCC)OCC(COC(=O)CCC[n+]2ccccc2)O1 (stereo not drawn) [Example 6, 2-heptadecyl 2-(n-propyl 4-(4'-(N-pyridinium)butyryloxymethyl]1,3-dioxolan chloride] | 3.04 |  |
| CCCCCCCCCCCCCCCCCC1(C)OCC(COC(=O)CCC[n+]2ccsc2)O1 (stereo not drawn) [Example 3, 2-heptadecyl 2-methyl 4-[4'-(N-thiazolinium)butyryloxymethyl]1,3-dixolan chloride] | 21.5 |  |
| CCCCCCCCCCCCCCCCCC1OCC(COC(=O)CCC[n+]2ccccc2)O1 (stereo not drawn) [Example 4, 2-heptadecyl 4-[4'-(N-pyridinium)butyryloxymethyl] 1,3-dioxolan chloride] | 7 |  |
| CCCCCCCCCC1(C)OCC(COC(=O)CCCCC[n+]2ccccc2)O1 (stereo not drawn) [Example 14, 2-nonyl 2-methyl 4-[6'-(N-pyridiniumhexanoyloxymethyl] 1,3-dioxolan bromide] | 1.46 | IC50 [4]: 0.61 µM |
| CCCCCCCCCCCCCCCCCC1(C)OCC(COC(=O)CCCC[n+]2ccccc2)O1 (stereo not drawn) [Example 7, 2-heptadecyl 2-methyl 4-[5'-(N-pyridinium)pentanoyloxymethyl]1,3-dioxolanchloride] | 5 |  |
| CCCCCCCCCCCCCCCCCC1(C)OCC(COC(=O)CCC[n+]2ccccc2)O1 (stereo not drawn) [Example 1, 2-heptadecyl 2-methyl 4-[4'-(N-pyridinium)butyryloxymethyl]-1,3-dioxolan chloride] | 2.2 | IC50 [4]: 0.45 µM |
| CCCCCCCCCCCCCCCCCC1(C)OCC(COC(=O)CCCCCCCCCC[n+]2ccccc2)O1 (stereo not drawn) [Example 12, 2-heptadecyl 2-methyl 4-[11'-(N-pyridiniumundecanoyloxymethyl) 1,3-dioxolan bromide] | 31.2 |  |
| CCCCCCCCCCCCCCCCCC1(C)OCC(COC(=O)CCC[n+]2cccc3ccccc32)O1 (stereo not drawn) [Example 2, 2-heptadecyl 2-methyl 4-[4'(N-quinolinium)butyryloxymethyl]1,3-dioxolan chloride] | 1.2 |  |
| COc1cc(C2(C)OCC(COC(=O)CCC[n+]3ccccc3)O2)cc(OC)c1OC (stereo not drawn) [Example 8, 2-(3,4,5-trimethoxyphenyl) 2-methyl 4-[4'-(N-pyridinium)butyryloxymethyl] 1,3-dioxolan chloride] | 11.3 |  |
